Assay results reported in PubChem BioAssay AID1259411 (Chemical Carcinogenesis Research Information System (CCRIS), 2018).
Calls of active or inactive are those of the source. The rule behind the calls is not given here.

Test system: rodent carcinogenicity bioassays, tumor incidence
Assay: CCRIS carcinogenicity studies
How it was run: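 Archive of carcinogenicity, mutagenicity, tumor promotion and tumor inhibition results drawn from journals, NCI reports and other sources, expert-reviewed; covers 1985-2011 and is no longer updated.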

SMILES: N[C@@H](CCC(=O)NNc1ccc(CO)cc1)C(=O)O
- carcinogen call (Species: MOUSE, Strain/Sex: SWISS/FEMALE, Route: SUBCUTANEOUS, Dose: 0, 100 UG IN 0.01 ML PHYSIOLOGICAL SALINE 1/WK FOR 5 WK (STUDY DURATION: LIFETIME)): inactive; negative
- carcinogen call (Species: MOUSE, Strain/Sex: SWISS/FEMALE, Route: SUBCUTANEOUS, Dose: 0, 100 UG IN 0.01 ML PHYSIOLOGICAL SALINE ONCE (STUDY DURATION: LIFETIME)): inactive; negative
- carcinogen call (Species: MOUSE, Strain/Sex: SWISS/MALE, Route: SUBCUTANEOUS, Dose: 0, 50 UG IN 0.01 ML PHYSIOLOGICAL SALINE ONCE (STUDY DURATION: LIFETIME)): inactive; negative
- carcinogen call (Species: MOUSE, Strain/Sex: SWISS/MALE, Route: SUBCUTANEOUS, Dose: 0, 100 UG IN 0.01 ML PHYSIOLOGICAL SALINE 1/WK FOR 5 WK (STUDY DURATION: LIFETIME)): inactive; negative

SMILES: COC(=O)C(C)(C)Oc1ccc(-c2ccc(Cl)cc2)cc1
- carcinogen call (Species: RAT, Strain/Sex: F344/MALE, Route: ORAL, Dose: 0.1% IN DIET FOR 75 WK, Tumor Site: Type of Lesion: LIVER: HEPATOCELLULAR CARCINOMA): active; positive

SMILES: Nc1nc2ncc(CNc3ccc(C(=O)N(N=O)[C@@H](CCC(=O)O)C(=O)O)cc3)nc2c(=O)[nH]1
- carcinogen call (Species: RAT, Route: ORAL, Tumor Site: Type of Lesion: LIVER): active; positive

SMILES: O=C(O)c1cc(Oc2ccc(C(F)(F)F)cc2Cl)ccc1[N+](=O)[O-]
- carcinogen call (Species: MOUSE, Strain/Sex: B6C3F1/FEMALE, Route: ORAL, Dose: 0, 625, 1250, 2500 PPM IN DIET FOR 18 MO (STUDY DURATION: 18 MO), Dose: 0, 625, 1250, 2500 PPM IN DIET FOR 18 MO (STUDY DURATION: 18 MO), Tumor Site: Type of Lesion: LIVER: ADENOMA, CARCINOMA, STOMACH: PAPILLOMA): active; positive
- carcinogen call (Species: MOUSE, Strain/Sex: B6C3F1/MALE, Route: ORAL, Dose: 0, 625, 1250, 2500 PPM IN DIET FOR 18 MO (STUDY DURATION: 18 MO), Dose: 0, 625, 1250, 2500 PPM IN DIET FOR 18 MO (STUDY DURATION: 18 MO), Tumor Site: Type of Lesion: LIVER: ADENOMA, CARCINOMA, STOMACH: PAPILLOMA): active; positive
- carcinogen call (Species: MOUSE, Strain/Sex: CR-CD-1/FEMALE, Route: ORAL, Dose: 0, 7.5, 4.5, 270 PPM IN DIET FOR 24 MO (STUDY DURATION: 24 MO), Dose: 0, 7.5, 4.5, 270 PPM IN DIET FOR 24 MO (STUDY DURATION: 24 MO), Tumor Site: Type of Lesion: LIVER: ADENOMA OR CARCINOMA): active; positive
- carcinogen call (Species: MOUSE, Strain/Sex: CR-CD-1/MALE, Route: ORAL, Dose: 0, 7.5, 4.5, 270 PPM IN DIET FOR 24 MO (STUDY DURATION: 24 MO), Dose: 0, 7.5, 4.5, 270 PPM IN DIET FOR 24 MO (STUDY DURATION: 24 MO), Tumor Site: Type of Lesion: LIVER: ADENOMA OR CARCINOMA): active; positive
- carcinogen call (Species: RAT, Strain/Sex: F344/MALE, FEMALE, Route: ORAL, Dose: 0, 25, 150, 500, 2500, 5000 PPM IN DIET FOR 2 YR (STUDY DURATION: 2 YR), Dose: 0, 25, 150, 500, 2500, 5000 PPM IN DIET FOR 2 YR (STUDY DURATION: 2 YR)): inactive; negative

SMILES: c1ccc2c(c1)c1cccc3ccc4cccc2c4c31
- carcinogen call (Species: RAT, Strain/Sex: OSBORNE-MENDEL/FEMALE, Route: LUNG IMPLANT, Dose: 0, 0.2, 1.0, 5.0 MG IN BEESWAX/TRIOCTANOIN (STUDY DURATION: LIFETIME), Dose: 0, 0.2, 1.0, 5.0 MG IN BEESWAX/TRIOCTANOIN (STUDY DURATION: LIFETIME)): inactive; negative

SMILES: CC(=O)Nc1ccc(N=Nc2cc(C)ccc2O)cc1
- carcinogen call (Species: MOUSE, Strain/Sex: B6C3F1/FEMALE, Route: ORAL, Dose: 0, 2500, 5000 PPM IN DIET, Dose: 0, 2500, 5000 PPM IN DIET, Tumor Site: Type of Lesion: LIVER: HEPATOCELLULAR ADENOMA): active; positive
- carcinogen call (Species: MOUSE, Strain/Sex: B6C3F1/MALE, Route: ORAL, Dose: 0, 2500, 5000 PPM IN DIET, Dose: 0, 2500, 5000 PPM IN DIET): inactive; negative
- carcinogen call (Species: RAT, Strain/Sex: F344/FEMALE, Route: ORAL, Dose: 0, 5000, 10000 PPM IN DIET, Dose: 0, 5000, 10000 PPM IN DIET): inactive; negative
- carcinogen call (Species: RAT, Strain/Sex: F344/MALE, Route: ORAL, Dose: 0, 5000, 10000 PPM IN DIET, Dose: 0, 5000, 10000 PPM IN DIET, Tumor Site: Type of Lesion: LIVER: NEOPLASTIC NODULE): active; positive

SMILES: O=S(O)S(=O)(=O)O
- carcinogen call (Species: RAT, Strain/Sex: WISTAR/FEMALE, Route: ORAL, Dose: 0, 0.125, 0.25, 0.5, 1, 2% IN DIET FOR 104 WK (STUDY DURATION: 104 WK), Dose: 0, 0.125, 0.25, 0.5, 1, 2% IN DIET FOR 104 WK (STUDY DURATION: 104 WK)): inactive; negative
- carcinogen call (Species: RAT, Strain/Sex: WISTAR/FEMALE, Route: ORAL, Dose: 0, 0.125, 0.25, 0.5, 1, 2% IN DIET FOR 104 WK TO OFFSPRING OF RATS ADMINISTERED THE SAME DOSES IN THEIR DIETS (STUDY DUR, Dose: 0, 0.125, 0.25, 0.5, 1, 2% IN DIET FOR 104 WK TO OFFSPRING OF RATS ADMINISTERED THE SAME DOSES IN THEIR DIETS (STUDY DUR): inactive; negative
- carcinogen call (Species: RAT, Strain/Sex: WISTAR/MALE, Route: ORAL, Dose: 0, 0.125, 0.25, 0.5, 1, 2% IN DIET FOR 104 WK (STUDY DURATION: 104 WK), Dose: 0, 0.125, 0.25, 0.5, 1, 2% IN DIET FOR 104 WK (STUDY DURATION: 104 WK)): inactive; negative
- carcinogen call (Species: RAT, Strain/Sex: WISTAR/MALE, Route: ORAL, Dose: 0, 0.125, 0.25, 0.5, 1, 2% IN DIET FOR 104 WK TO OFFSPRING OF RATS ADMINISTERED THE SAME DOSES IN THEIR DIETS (STUDY DUR, Dose: 0, 0.125, 0.25, 0.5, 1, 2% IN DIET FOR 104 WK TO OFFSPRING OF RATS ADMINISTERED THE SAME DOSES IN THEIR DIETS (STUDY DUR): inactive; negative

SMILES: NC(=O)N(CCF)N=O
- carcinogen call (Species: RAT, Strain/Sex: F344/MALE, Route: GAVAGE, Dose: 0, 1.75 MG/ML (TOTAL DOSE 0; 0.2 MMOL) IN 2 ML ETHYL ACETATE AND CORN OIL (1:2) 2/WK FOR 40 WK (STUDY DURATION: LIFETIME, Dose: 0, 1.75 MG/ML (TOTAL DOSE 0; 0.2 MMOL) IN 2 ML ETHYL ACETATE AND CORN OIL (1:2) 2/WK FOR 40 WK (STUDY DURATION: LIFETIME): inactive; negative
- carcinogen call (Species: RAT, Strain/Sex: F344/MALE, Route: GAVAGE, Dose: 0, 1.75 MG/ML IN 0.2 ML ETHYL ACETATE AND CORN OIL 2/WK FOR 40 WK (STUDY DURATION: LIFESPAN), Tumor Site: Type of Lesion: FORESTOMACH: TUMOR): active; positive

SMILES: CCC[CH2][Sn]([CH2]CCC)([CH2]CCC)[O][Sn]([CH2]CCC)([CH2]CCC)[CH2]CCC
- carcinogen call (Species: RAT, Strain/Sex: WISTAR/FEMALE, Route: ORAL, Dose: 0, 0.5, 5, 50 MG/KG DIET FOR 30 MO (STUDY DURATION: 30 MO), Dose: 0, 0.5, 5, 50 MG/KG DIET FOR 30 MO (STUDY DURATION: 30 MO), Tumor Site: Type of Lesion: ADRENAL GLAND: PHEOCHROMOCYTOMA, PITUITARY: TUMOR): active; positive
- carcinogen call (Species: RAT, Strain/Sex: WISTAR/MALE, Route: ORAL, Dose: 0, 0.5, 5, 50 MG/KG DIET FOR 30 MO (STUDY DURATION: 30 MO), Dose: 0, 0.5, 5, 50 MG/KG DIET FOR 30 MO (STUDY DURATION: 30 MO), Tumor Site: Type of Lesion: ADRENAL GLAND: PHEOCHROMOCYTOMA, PITUITARY: TUMOR, PARATHYROID: ADENOMA, Tumor Site: Type of Lesion: ADRENAL GLAND: PHEOCHROMOCYTOMA, PITUITARY: TUMOR, PARATHYROID: ADENOMA): active; positive

SMILES: Cc1cc(O)c2c(c1)C(=O)c1cc(O)cc(O)c1C2=O
- carcinogen call (Species: MOUSE, Strain/Sex: B6C3F1/FEMALE, Route: ORAL, Dose: 0, 312, 625, 1250 PPM IN DIET FOR 105 WK (STUDY DURATION: 105 WK), Dose: 0, 312, 625, 1250 PPM IN DIET FOR 105 WK (STUDY DURATION: 105 WK)): inactive; negative
- carcinogen call (Species: MOUSE, Strain/Sex: B6C3F1/MALE, Route: ORAL, Dose: 0, 160, 312, 625 PPM IN DIET FOR 105 WK (STUDY DURATION: 105 WK), Dose: 0, 160, 312, 625 PPM IN DIET FOR 105 WK (STUDY DURATION: 105 WK), Tumor Site: Type of Lesion: KIDNEY: RENAL TUBULE ADENOMA, RENAL TUBULE CARCINOMA, RENAL TUBULE ADENOMA OR CARCINOMA): equivocal
- carcinogen call (Species: RAT, Strain/Sex: F344/FEMALE, Route: ORAL, Dose: 0, 280, 830, 2500 PPM IN DIET FOR 105 WK (STUDY DURATION: 105 WK), Dose: 0, 280, 830, 2500 PPM IN DIET FOR 105 WK (STUDY DURATION: 105 WK), Tumor Site: Type of Lesion: ZYMBAL GLAND: CARCINOMA): equivocal
- carcinogen call (Species: RAT, Strain/Sex: F344/MALE, Route: ORAL, Dose: 0, 280, 830, 2500 PPM IN DIET FOR 105 WK (STUDY DURATION: 105 WK), Dose: 0, 280, 830, 2500 PPM IN DIET FOR 105 WK (STUDY DURATION: 105 WK)): inactive; negative
